Measured values from patent publication US9988400B2 (Genentech, Inc., priority 2013, dated 2018).

Target: T1, HEK cells stably transfected with tetracycline inducible hNR1 and hNR2A (Homo sapiens, UniProt Q05586+Q12879)
T1 construct: expressed in transfected cells; host or cells: HEK cells, stably transfected, tetracycline/doxycycline inducible
Test: Assay 1: Cell-Based Assay, cytosolic calcium response to positive allosteric modulators (with 30 μM glycine and 300 nM L-glutamate, EC30)
Settings: Table 2; for Max %: responses scaled relative to 100 μM L-glutamate maximal response (100%) and 0 μM L-glutamate (0%); for EC50: cytosolic calcium response, with 30 μM glycine and 300 nM L-glutamate (EC30), — = no plateau was reached
Outline: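 Cells induced 24 h with 7.5 μg mL^−1 doxycycline plus 500 μM (+)-ketamine, loaded 60 min at 37 °C with calcium dye in Mg-free HBSS (1.8 mM Ca, probenecid, 10 μM (+)-ketamine, pH 7.15). Peak RFU over 5 min after compound addition, scaled to 100 μM L-glutamate (100%) and 0 μM (0%); four-parameter Hill fit for EC50, max % if no plateau.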

T1 sequence (Q12879 23-1464, other chains not shown): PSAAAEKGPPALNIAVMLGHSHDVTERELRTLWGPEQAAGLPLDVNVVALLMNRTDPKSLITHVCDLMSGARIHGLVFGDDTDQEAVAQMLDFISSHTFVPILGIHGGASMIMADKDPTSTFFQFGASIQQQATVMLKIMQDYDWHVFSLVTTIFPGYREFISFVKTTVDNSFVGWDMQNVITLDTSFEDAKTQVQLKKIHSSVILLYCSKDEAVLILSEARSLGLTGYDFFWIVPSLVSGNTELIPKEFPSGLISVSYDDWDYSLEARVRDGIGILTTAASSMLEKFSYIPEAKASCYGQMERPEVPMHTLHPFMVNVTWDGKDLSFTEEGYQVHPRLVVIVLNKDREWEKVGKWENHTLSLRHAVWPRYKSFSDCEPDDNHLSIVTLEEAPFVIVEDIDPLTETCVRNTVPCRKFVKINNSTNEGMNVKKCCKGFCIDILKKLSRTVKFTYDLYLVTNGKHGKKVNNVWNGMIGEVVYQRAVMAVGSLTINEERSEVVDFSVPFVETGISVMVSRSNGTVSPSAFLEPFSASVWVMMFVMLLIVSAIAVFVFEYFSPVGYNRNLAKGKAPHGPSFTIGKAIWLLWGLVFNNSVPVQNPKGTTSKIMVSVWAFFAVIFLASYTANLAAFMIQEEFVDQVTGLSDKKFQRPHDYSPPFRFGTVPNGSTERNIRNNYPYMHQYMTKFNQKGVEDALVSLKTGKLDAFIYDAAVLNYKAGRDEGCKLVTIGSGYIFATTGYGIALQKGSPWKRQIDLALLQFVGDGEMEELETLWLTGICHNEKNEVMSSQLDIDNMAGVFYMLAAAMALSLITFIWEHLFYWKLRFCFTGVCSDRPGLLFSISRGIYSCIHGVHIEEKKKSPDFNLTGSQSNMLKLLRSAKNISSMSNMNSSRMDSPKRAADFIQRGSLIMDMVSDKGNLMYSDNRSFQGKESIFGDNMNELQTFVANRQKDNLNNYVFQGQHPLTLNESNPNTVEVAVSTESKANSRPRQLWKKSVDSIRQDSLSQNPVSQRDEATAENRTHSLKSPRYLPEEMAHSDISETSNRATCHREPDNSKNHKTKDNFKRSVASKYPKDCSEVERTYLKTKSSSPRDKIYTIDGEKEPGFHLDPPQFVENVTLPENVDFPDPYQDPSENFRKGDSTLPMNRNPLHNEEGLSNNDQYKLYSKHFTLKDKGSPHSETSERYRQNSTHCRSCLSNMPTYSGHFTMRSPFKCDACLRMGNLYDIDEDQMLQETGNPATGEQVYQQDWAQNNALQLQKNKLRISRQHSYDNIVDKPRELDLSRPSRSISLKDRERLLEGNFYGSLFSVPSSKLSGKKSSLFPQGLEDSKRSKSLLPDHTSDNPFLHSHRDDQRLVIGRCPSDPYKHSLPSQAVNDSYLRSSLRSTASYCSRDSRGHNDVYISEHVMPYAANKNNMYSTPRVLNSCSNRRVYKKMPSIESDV

Cc1sc2nc(Cn3nc(C4CC4)cc3C(F)(F)F)cc(=O)n2c1-c1cncnc1 [Example 15.28, 7-((3-cyclopropyl-5-(trifluoromethyl)-1H-pyrazol-1-yl)methyl)-2-methyl-3-(pyrimidin-5-yl)-5H-thiazolo[3,2-a]pyrimidin-5-one]
Max %: 80.8%

Cc1sc2nc(Cn3nc(C(F)(F)F)cc3C3CC3)cc(=O)n2c1-c1cncnc1 [Example 15.29, 7-((5-cyclopropyl-3-(trifluoromethyl)-1H-pyrazol-1-yl)methyl)-2-methyl-3-(pyrimidin-5-yl)-5H-thiazolo[3,2-a]pyrimidin-5-one]
EC50: 7 µM | Max %: 135%

Cc1sc2nc(Cn3nc(C(F)(F)F)cc3C(F)(F)F)cc(=O)n2c1-c1cncnc1 [Example 15.30, 7-((3,5-bis(trifluoromethyl)-1H-pyrazol-1-yl)methyl)-2-methyl-3-(pyrimidin-5-yl)-5H-thiazolo[3,2-a]pyrimidin-5-one]
EC50: 22 µM | Max %: 116%

Cc1sc2nc(Cn3nccc3C(F)(F)F)cc(=O)n2c1-c1cncnc1 [Example 15.31, 2-methyl-3-(pyrimidin-5-yl)-7-((5-(trifluoromethyl)-1H-pyrazol-1-yl)methyl)-5H-thiazolo[3,2-a]pyrimidin-5-one]
Max %: 57.8%

Cc1sc2nc(Cn3nc(C(F)(F)F)cc3C)cc(=O)n2c1-c1cncnc1 [Example 15.32, 2-methyl-7-((5-methyl-3-(trifluoromethyl)-1H-pyrazol-1-yl)methyl)-3-(pyrimidin-5-yl)-5H-thiazolo [3,2-a]pyrimidin-5-one]
Max %: 94.8%

Cc1cn2c(=O)cc(Cn3nc(C(F)(F)F)cc3C(F)(F)F)nc2s1 [Example 15.33, 7-((3,5-bis(trifluoromethyl)-1H-pyrazol-1-yl)methyl)-2-methyl-5H-thiazolo[3,2-a]pyrimidin-5-one]
EC50: 18.8 µM | Max %: 51.8%

Cc1sc2nc(Cn3ncc4ccccc43)cc(=O)n2c1-c1cncnc1 [Example 15.34, 7-((1H-indazol-1-yl)methyl)-2-methyl-3-(pyrimidin-5-yl)-5H-thiazolo[3,2-a]pyrimidin-5-one]
Max %: 48.2%

CNC(=O)c1c(C)sc2nc(Cn3nc(C(F)(F)F)cc3C3CC3)cc(=O)n12 [Example 16.1, 7-((5-cyclopropyl-3-(trifluoromethyl)-1H-pyrazol-1-yl)methyl)-N,2-dimethyl-5-oxo-5H-thiazolo[3,2-a]pyrimidine-3-carboxamide]
EC50: 2.3 µM | Max %: 140%

CNC(=O)c1c(C)sc2nc(Cn3nc(C4CC4)cc3C(F)(F)F)cc(=O)n12 [Example 16.2, 7-((3-cyclopropyl-5-(trifluoromethyl)-1H-pyrazol-1-yl)methyl)-N,2-dimethyl-5-oxo-5H-thiazolo[3,2-a]pyrimidine-3-carboxamide]
EC50: 11.7 µM | Max %: 110%

CCNC(=O)c1c(C(F)(F)F)sc2nc(Cn3nc(C(F)(F)F)cc3C3CC3)cc(=O)n12 [Example 16.3, 7-((5-cyclopropyl-3-(trifluoromethyl)-1H-pyrazol-1-yl)methyl)-N-ethyl-5-oxo-2-(trifluoromethyl)-5H-thiazolo[3,2-a]pyrimidine-3-carboxamide]
EC50: 1.4 µM | Max %: 160%

CCNC(=O)c1c(C(F)(F)F)sc2nc(Cn3nc(C4CC4)cc3C(F)(F)F)cc(=O)n12 [Example 16.4, 7-((3-cyclopropyl-5-(trifluoromethyl)-1H-pyrazol-1-yl)methyl)-N-ethyl-5-oxo-2-(trifluoromethyl)-5H-thiazolo[3,2-a]pyrimidine-3-carboxamide]
EC50: 9.2 µM | Max %: 130%

CCNC(=O)c1csc2nc(Cn3nc(C(F)(F)F)cc3C3CC3)cc(=O)n12 [Example 16.5, 7-((5-cyclopropyl-3-(trifluoromethyl)-1H-pyrazol-1-yl)methyl)-N-ethyl-5-oxo-5H-thiazolo[3,2-a]pyrimidine-3-carboxamide]
EC50: 10.6 µM | Max %: 149%

CCNC(=O)c1c(C2CC2)sc2nc(Cn3nc(C(F)(F)F)cc3C3CC3)cc(=O)n12 [Example 16.6, 2-cyclopropyl-7-((5-cyclopropyl-3-(trifluoromethyl)-1H-pyrazol-1-yl)methyl)-N-ethyl-5-oxo-5H-thiazolo[3,2-a]pyrimidine-3-carboxamide]
EC50: 5.5 µM | Max %: 140%

CCNC(=O)c1c(C2CC2)sc2nc(Cn3nc(C4CC4)cc3C(F)(F)F)cc(=O)n12 [Example 16.7, 2-cyclopropyl-7-((3-cyclopropyl-5-(trifluoromethyl)-1H-pyrazol-1-yl)methyl)-N-ethyl-5-oxo-5H-thiazolo[3,2-a]pyrimidine-3-carboxamide]
EC50: 36.2 µM | Max %: 67.5%

Cc1sc2nc(Cn3ccc(C(F)(F)F)n3)cc(=O)n2c1C#N [Example 17.1, 2-methyl-5-oxo-7-((3-(trifluoromethyl)-1H-pyrazol-1-yl)methyl)-5H-thiazolo[3,2-a]pyrimidine-3-carbonitrile]
Max %: 107%

Cc1sc2nc(Cn3nc(C(F)(F)F)cc3C3CC3)cc(=O)n2c1C#N [Example 17.2, 7-((5-cyclopropyl-3-(trifluoromethyl)-1H-pyrazol-1-yl)methyl)-2-methyl-5-oxo-5H-thiazolo[3,2-a]pyrimidine-3-carbonitrile]
EC50: 2 µM | Max %: 119%

Cc1sc2nc(Cn3nc(C4CC4)cc3C(F)(F)F)cc(=O)n2c1C#N [Example 17.3, 7-((3-cyclopropyl-5-(trifluoromethyl)-1H-pyrazol-1-yl)methyl)-2-methyl-5-oxo-5H-thiazolo[3,2-a]pyrimidine-3-carbonitrile]
Max %: 104%

Cc1sc2nc(Cn3ccc(C(F)(F)F)n3)cc(=O)n2c1C(C)O (stereo not drawn) [Example 18.1, 3-(1-hydroxyethyl)-2-methyl-7-((3-(trifluoromethyl)-1H-pyrazol-1-yl)methyl)-5H-thiazolo[3,2-a]pyrimidin-5-one]
Max %: 94.8%

CC(=O)c1c(C)sc2nc(Cn3nc(C(F)(F)F)cc3C3CC3)cc(=O)n12 [Example 18.2, 3-acetyl-7-((5-cyclopropyl-3-(trifluoromethyl)-1H-pyrazol-1-yl)methyl)-2-methyl-5H-thiazolo[3,2-a]pyrimidin-5-one]
EC50: 2.2 µM | Max %: 144%

CC(=O)c1c(C)sc2nc(Cn3nc(C4CC4)cc3C(F)(F)F)cc(=O)n12 [Example 18.3, 3-acetyl-7-((3-cyclopropyl-5-(trifluoromethyl)-1H-pyrazol-1-yl)methyl)-2-methyl-5H-thiazolo[3,2-a]pyrimidin-5-one]
EC50: 25.4 µM | Max %: 129%

Cc1sc2nc(Cn3ccc(C(F)(F)F)n3)cc(=O)n2c1C(C)(C)O [Example 18.4, 3-(2-hydroxypropan-2-yl)-2-methyl-7-((3-(trifluoromethyl)-1H-pyrazol-1-yl)methyl)-5H-thiazolo[3,2-a]pyrimidin-5-one]
Max %: 127%

Cc1sc2nc(Cn3nc(C)c4cc(F)ccc43)cc(=O)n2c1C(C)O (stereo not drawn) [Example 18.5, 7-((5-fluoro-3-methyl-1H-indazol-1-yl)methyl)-3-(1-hydroxyethyl)-2-methyl-5H-thiazolo[3,2-a]pyrimidin-5-one]
Max %: 40.7%

Cc1sc2nc(C(C)n3nc(C(F)(F)F)cc3C3CC3)cc(=O)n2c1C1(C)CC1CO (stereo not drawn) [Example 19.2, 7-(1-(5-cyclopropyl-3-(trifluoromethyl)-1H-pyrazol-1-yl)ethyl)-3-(2-(hydroxymethyl)-1-methylcyclopropyl)-2-methyl-5H-thiazolo[3,2-a]pyrimidin-5-one]
Max %: 64.2%
